The results in this text go back to patent US11566260B2, “Potentiating agents for protecting plants from fungal infections” (UNIVERSITE D'ANGERS, priority 2012, dated 2023).

Common to all, as to assay type: cell-based
Assay [1] relates to Alternaria dauci. Briefly: Growth inhibition of Alternaria dauci (protocol of Example 1), non-fungicidal amount. As to the method: Suspensions of fungal conidia (starting material being for example 10^5 conidia/mL) are cultured in liquid medium, such as, for example, 300 μL of PBD medium, on microplate wells at 25° C. with shaking at 175 rpm for 5 minutes every 10 minutes. Increasing concentrations of the tested product are added on wells, and fungal growth is measured, during at least 5 hours, preferably at least 10, 20, 30 hours. Methods for measuring fungal growth are well known from the skilled artisan. […] Growth inhibition is measured by comparing the Area Under Curves (AUC) of treated samples and of untreated controls. […]
(§1) For inoculum preparation, conidia were collected from 8-days-old solid cultures by adding PD broth followed by gentle scraping of the agar plates. They were counted in a Thoma's chamber and the conidial suspensions were diluted to the concentration of 10^5 conidia/mL.
Growth was automatically recorded for at least 30 hours at 25° C. using a nephelometric reader (NEPHELOstar Galaxy, BMG Labtech, Germany) equipped with a 635-nm laser as radiation source. […] Each well was measured for 0.1 second with a laser beam of 2.5 mm.
The non-fungicidal amount of the sanguinarine contained in M. cordata extract against A. dauci strain was determined as 12 μM or 4 ppm according to the protocol described in Example 1. […]

In assay [2] the test system is Alternaria brassicicola. Briefly: Test B: potentiating effect with a plant defense molecule on growth of Alternaria brassicicola. The conditions noted are these: Alternaria brassicicola. As for the experimental part:
(§2) Test B: • 1) Determining a non-fungicidal amount of said agent, preferably according to Test A; • 2) Determining a non-fungicidal amount of a plant defense molecule, preferably according to Test A; • 3) Measuring growth of fungal conidia in a medium comprising a combination of a non-fungicidal amount of the agent, as determined in step 1, and a non-fungicidal amount of the plant defense molecule, as determined in step 2. In one embodiment, the growth is measured as follows: Suspensions of fungal conidia (starting material: 10^5 conidia/mL) are cultured in liquid medium, such as, for example, 300 μL of PBD medium, on microplate wells at 25° C. with shaking at 175 rpm for 5 minutes every 10 minutes. Non-fungicidal concentrations of the tested agent and of the tested plant defense molecule are added on wells, and fungal growth is measured during at least 5 hours, preferably at least 10, 20, 30 hours. Methods for measuring fungal growth are well known from the skilled artisan. Examples of such methods include, but are not limited to, photometry, such as, for example, spectrophotometric methods; or nephelometry, such as, for example, laser nephelometry as described in Joubert et al (Biotechniques, 2010, 48:399-404). Growth inhibition is measured by comparing the Area Under Curves (AUC) of treated samples and of untreated controls.
The potentiating effect of chelerythrin is measured in a suspension of conidia treated with a plant defense molecule, camalexin, which is present at a non-fungicidal amount as determined hereinabove. Said non-fungicidal amount is consistent with the amount of camalexin produced by an infected plant organ.
Alternaria brassicicola growth was measured as described hereinabove.
A non-fungicidal amount of chelerythrin (as determined in Example 1a) and/or a non-fungicidal amount of camalexin (as determined in Example 1b) or 10 μL of DMSO are added per well, and growth curves were drawn (FIG. 3).
In the Table 5 below are shown compounds (column 1) having a potentiating effect of a plant defense molecule (column 2) for the inhibition of a pathogenic fungus (column 3). The type of the potentiating agent in this particular situation is given in column 4 (homologous or heterologous). Triads were identified according to Test B.

Assay [3] concerns Alternaria dauci. The assay can be described thus: Test B: potentiating effect with a plant defense molecule on growth of Alternaria dauci. The conditions noted are these: plant defense molecule 6-methoxymellein. As to the method:
as §2, with “Examples of such methods include, but are not limited to, photometry, such as, for example, spectrophotometric methods; or nephelometry, such as, for example, laser nephelometry as described in Joubert et al (Biotechniques, 2010, 48:399-404).” left out, “controls. […]” for “controls.”
Following the aforementioned growth inhibition protocol, the following treatments are assessed: • 6-methoxymellein 125 μM, • 6-methoxymellein 100 μM, • 6-methoxymellein 125 μM and M. cordata extract (10 μM of Sanguinarine), • 6-methoxymellein 100 μM and M. cordata extract (10 μM of Sanguinarine).

The next assay has as its system Botrytis cinerea. Briefly: Test B: potentiating effect with a plant defense molecule on Botrytis cinerea. As to the method: as §2, with “controls. […]” for “controls.”
In assay [4] the test system is Alternaria brassicicola. The assay can be described thus: Test A: growth of Alternaria brassicicola conidia followed by nephelometry, to find the non-fungicidal amount. As to the method: Suspensions of fungal conidia (starting material being for example 10^5 conidia/mL) are cultured in liquid medium, such as, for example, 300 μL of PBD medium, on microplate wells at 25° C. with shaking at 175 rpm for 5 minutes every 10 minutes. Increasing concentrations of the tested product are added on wells, and fungal growth is measured, during at least 5 hours, preferably at least 10, 20, 30 hours. Methods for measuring fungal growth are well known from the skilled artisan. Examples of such methods include, but are not limited to, photometry, such as, for example, spectrophotometric methods; or nephelometry, such as, for example, laser nephelometry as described in Joubert et al (Biotechniques, 2010, 48:399-404). Growth inhibition is measured by comparing the Area Under Curves (AUC) of treated samples and of untreated controls. Test A is carried out in Example 1.
Alternaria brassicicola strains were cultivated at 24° C. on potato dextrose (PD) medium (Cat. No. 213200; Becton Dickinson, USA).
as §1
Growth was automatically recorded for at least 30 hours at 25° C. using a nephelometric reader (NEPHELOstar Galaxy, BMG Labtech, Germany) equipped with a 635-nm laser as radiation source. During incubation, the 96-well plates were subjected to shaking at 175 rpm for 5 minutes every 10 minutes. Measurements were done every hour with a gain value of 90 and a percentage of the maximum value of 20%. Each well was measured for 0.1 second with a laser beam of 2.5 mm.
Chelerythrin (25 μM or 50 μM, test wells) or 10 μL of DMSO (chelerythrin solvent, control wells) were added on wells, and growth curves were drawn (FIG. 1).
Camalexin (10, 20, 40 or 60 μM, test wells) or 10 μL of DMSO (chelerythrin solvent, control wells) were added on wells, and growth curves were drawn (FIG. 2).

The mark [5] stands for this setting: plant defense molecule Resveratrol.
Where [6] appears, read: plant defense molecule Brassinin.
Setting [7] is: plant defense molecule Camalexin.

Structures are written as SMILES.

For `COc1cc(O)c2c(c1)C[C@@H](C)OC2=O` [6-methoxymellein], the “growth inhibition of Alternaria dauci” value in the assay on Alternaria dauci [1] (6-methoxymellein 100 μM) and in the assay on Alternaria dauci [1] (6-methoxymellein 125 μM) was “did not inhibit” each time.

As for `CCOc1cc2c3cc(OC)c(OC)cc3cnc2c2cc(OC)c(OC)cc12` [Compound 1], in the assay on Alternaria brassicicola [2] (setting [5]), the “Type of potentiating agent (compound having a potentiating effect of the plant defense molecule)” value (“Type of potentiating agent” for short) was “Heterologous”.

Consider `CCOc1cc2c3cc(OC)c(OC)cc3c[n+](C)c2c2cc(OC)c(OC)cc12` [Compound 2], for which the “Type of potentiating agent” value with Alternaria dauci [3], with Botrytis cinerea (setting [6]), with Botrytis cinerea (setting [7]) and in the assay on Alternaria brassicicola [2] (setting [6]) was “Homologous” throughout.

As for `CCOc1cc2c(OCC)cc3c4cc(OC)c(OC)cc4cnc3c2cc1OC` [Compound 3], the “Type of potentiating agent” value with Alternaria brassicicola [2] (setting [5]) is “Heterologous”.

Consider `COc1cc2c[n+](C)c3c4cc(OC)c(OC)cc4c(OCc4ccccc4)cc3c2cc1OC` [Compound 4], for which the “Type of potentiating agent” value with Alternaria brassicicola [2] (setting [6]) is given as “Homologous”; in the assay on Alternaria brassicicola [2] (setting [5]), “Heterologous”.

Take `COc1cc2c(OC)cc3c4cc(OC)c(OC)cc4c(=O)n(C)c3c2cc1OC` [Compound 5]: the “Type of potentiating agent” value in the assay with Alternaria brassicicola [2] (setting [6]) was “Homologous”; with Alternaria brassicicola [2] (setting [5]), “Heterologous”.

As to `c1c2c(cc3c1OCO3)-c1cc3ccc4c(c3c[n+]1CC2)OCO4` [Coptisin], the “Type of potentiating agent” value in the assay on Alternaria brassicicola [2] (setting [6]) and with Alternaria brassicicola [2] (setting [7]) was “Homologous” in each case.

Take `c1ccc2c(-c3nccs3)c[nH]c2c1` [camalexin, reference compound]: the “inhibition of Alternaria brassicicola growth” value with Alternaria brassicicola [4] (10 μM camalexin) and in the assay with Alternaria brassicicola [4] (20 μM camalexin) was not above 20% each time.
